{"source": "patent US8987217B2", "about": "“Modified saponins for the treatment of fungal infections” (The General Hospital Corporation, priority 2010, dated 2015)", "key": {"[1]": {"tested_on": "C. elegans", "test": "toxicity to the nematode in dose response experiments", "conditions": "dose response experiments, higher concentrations", "source_text": "This assay allows simultaneous assessment of a compound's potential toxicity and the ability to promote the survival of the nematode in the presence of C. albicans, including modes of action not traditionally considered in antifungal assays such as impeding a fungal virulence factor or promoting host immune response. We performed a screen of 2,560 natural products representing a fraction of the Analyiticon Discovery compound collection (ac-discovery.com) housed at the Broad Institute of Harvard and MIT (Cambridge, Mass.). […] These natural products identified in the primary screen were retested and confirmed (FIG. 1; Table 1). […] Moreover, although the antifungal effects of some of these saponins have been reported (Sata et al., Biosci Biotechnol Biochem, 62:1904-1911 (1998); Ohtani et al., Phytochem, 33:83-86 (1993)), their efficacy against Candida spp. has not been studied.\nRepresentatives of the saponins family are able to disrupt cellular membranes and the lytic activity on erythrocytes has been used as an assay for some saponins Francis et al., British Journal of Nutrition, 88:587-605 (2002)). This property is derived from the affinity of some saponins for binding cholesterol forming insoluble pores composed of the sterol and saponins (Bangham et al., Nature, 196:952-953(1962); Glauert et al., Nature, 196:953-955 (1962)). […] The dose-response experiments previously used to determine the EC50 and approximate the MIC can also indicate if the saponins maybe toxic to C. elegans and potentially to mammalian cells."}, "[2]": {"tested_on": "C. albicans DAY185", "test": "photodynamic inactivation (PDI) with photosensitizers", "assay_type": "cell-based", "conditions": "4 μg/mL A16, 10 μM PEI-ce6", "method": "The PS used were Rose Bengal (RB, Sigma-Aldrich, St. Louis, Mo.) and chlorin(e6) (ce6, Frontier Scientific, Logan, Utah). PEI-ce6 was synthesized as a covalent conjugate between polyethylenimine (MW range 10,000-25,000, an average of one ce6 per chain) and ce6 as described previously (Tegos et al., Antimicrob Agents Chemother, 50:1402-1410 (2006)). Stock solutions were prepared in water at a concentration of 2 mM and stored for a maximum of 2 weeks in the dark at 4° C. before use. Spectra of stock solutions of PS diluted 140- to 280-fold in methanol were recorded. A noncoherent light source with interchangeable fiber bundles (LC122; LumaCare, London, United Kingdom) was employed. Thirty-nanometer-band-pass filters at ranges of 540±15 nm for RB, and 660±15 nm for ce6 and PEI-ce6 were used. […]\nPhotodynamic inactivation utilizes a non-toxic dye, or photosensitizer (PS), which is able to generate reactive oxygen species, such as singlet oxygen and hydroxyl radical, in the presence of oxygen and low-intensity light of the correct wavelength to be absorbed by the PS ultimately producing toxic effects in microbial cells (Fuchs et al., Antimicrob Agents Chemother, 51:2929-2936 (2007)). […] The survival fraction and uptake (molecules/cell) of C. albicans was determined for PDI mediated by the 3 different PSs with or without A16 pre-incubation for various time periods ranging between 1-24 hours. […]"}, "[3]": {"tested_on": "C. albicans strains", "test": "MIC by standard CLSI microdilution protocol M27-A", "assay_type": "cell-based", "method": "Using the standard Clinical and Laboratory Standards Institute (CLSI) procedure, the in vitro MIC of these two compounds was determined on the following C. albicans strains: DAY185 (the standard strain used throughout the screen), two fluconazole-resistant strains of C. albicans, and an echinocandin-resistant strain of C. albicans (Table 2).\nThe minimal inhibitory concentration (MIC) was determined for strains DAY185, 98-145, 95-120 (White et al., Antimicrob Agents Chemother, 46:1704-1713 (2002)), and A15-10 (Garcia-Effron et al., Antimicrob Agents Chemother, 53:112-122 (2009)) spectrophotometrically using RPMI 1640 media (Mediatech, Inc.) following the standard CLSI microdilution protocol M27-A (National Committee for Clinical Laboratory Standards, Reference method for broth dilution susceptibility testing of yeasts. Tentative standard M27-A, Villanova, Pa. (1995)). Biofilm assays using identified compounds were conducted as previously described (Richard et al., Eukaryot Cell, 4:1493-1502 (2005)). The biofilm dry mass was determined by drying the silicone squares in a chemical hood, and weighing the resulting biofilm mass subtracting the previously weighed mass of the silicone square. Biofilm pictures were captured using a confocal laser microscope (TCS NT, Leica Microsystems). Cells were grown at 30° C., exposed to PS for 30 min, and then washed with PBS."}}, "note": "Read-outs that look alike come from different tables or passages of the source."}
{"smiles": "CC1CC[C@@]2(OC1)O[C@H]1CC3C4C[C@@H](O)C5C[C@@H](O[C@@H]6O[C@H](CO)[C@H](O[C@@H]7O[C@H](CO)[C@@H](O)[C@H](O[C@@H]8OC[C@@H](O)[C@H](O)[C@H]8O)[C@H]7O[C@@H]7O[C@H](CO)[C@@H](O)[C@H](O)[C@H]7O)[C@H](O)[C@H]6O)[C@H](O)C[C@]5(C)C4CC[C@]3(C)[C@H]1[C@@H]2C", "note": "(some centres unmarked) [A16, Aginoside]", "values": [{"measurement": "toxicity to the nematode", "setting": "[1]", "value": "none of the concentrations used in the dose response experiment showed signs of toxicity"}, {"measurement": "killing by PEI-ce6 mediated PDI after pre-incubation with A16", "setting": "[2]", "value": "does not change dramatically"}, {"measurement": "MIC", "setting": "[3]", "value": 16, "unit": "µg/mL"}, {"measurement": "MIC", "setting": "[3]; C. albicans DAY185", "value": 16, "unit": "µg/mL"}, {"measurement": "MIC", "setting": "[3]; echinocandin-resistant strain A15", "value": 16, "unit": "µg/mL"}]}
